Data set [1] relates to HeLa (human cervix carcinoma) cells. Put plainly: MTT cytotoxicity assay, HeLa. Type of data set: cell-based. The following applies: read-out: IC50 HeLa. Here is the method:
(§1) The cytotoxicity of new derivatives of dicarboximides was tested in HeLa (cervix carcinoma cell line), K562 (myelogenous leukemia cell line), MOLT-4 (Human T-Lymphoid Cell Line), and HUVEC (normal endothelial) cells. First, the viability of cells was determined after 48 h incubation with the screened compounds used at the concentration of 100 μM (data not shown). […] Cells exposed to 1% DMSO (as vehicle) served as the control with 100% survival.
(§2) Human umbilical vein endothelial cells (Life Technologies, Carlsbad, CA, USA) were cultured (according to the manufacturer’s instructions) in Medium 200 containing low serum growth supplement; 1 × 10^4 cells were seeded on each well on a 96-well plate (Nunc, Roskilde, Denmark). The HeLa (human cervix carcinoma), K562, and MOLT-4 (leukemia) cells were cultured in RPMI 1640 medium supplemented with antibiotics and 10% fetal calf serum in a 5% CO2–95% air atmosphere; 7 × 10^3 cells were seeded on each well on a 96-well plate (Nunc). Twenty-four hours later, cells were exposed to the test compounds for additional 48 hours. Stock solutions of test compounds were freshly prepared in DMSO. The final concentrations of the compounds tested in the cell cultures were 2 × 10^−1, 1 × 10^−1, 5 × 10^−2, 1 × 10^−2, 1 × 10^−3, and 1 × 10^−4 mM. The concentration of DMSO in the cell culture medium was 1%. The values of IC50 (the concentration of test compound required to reduce the cell survival fraction to 50% of the control) were calculated from dose–response curves and used as a measure of cellular sensitivity to a given treatment. The cytotoxicity of all compounds was determined by the MTT [3-(4,5-dimethylthiazol-2-yl)-2,5-diphenyltetrazolium bromide; Sigma, St. Louis, MO, USA] assay. Briefly, after 24 or 48 h of incubation with drugs, the cells were treated with the MTT reagent, and incubation was continued for 2 h. MTT-formazan crystals were dissolved in 20% SDS and 50% DMF at pH 4.7, and absorbance was read at 570 and 650 nm on a microplate reader FLUOstar Omega (BMG Labtech, Offenburg, Germany). As a control (100% viability), we used cells grown in the presence of the vehicle (1% DMSO) only.

Data set [2] concerns K562 (myelogenous leukemia cell line). Put plainly: MTT cytotoxicity assay, K562. The format is cell-based, human. Conditions: Homo sapiens, K562, 48 h, read-out: IC50 K562. On the procedure: as §1, §2
The subject of data set [3] is MOLT-4 (Human T-Lymphoid Cell Line). Put plainly: MTT cytotoxicity assay, MOLT-4. The format is cell-based. The following applies: read-out: IC50 MOLT-4. On the procedure:
as §1, §2

Data set [4] relates to HUVEC (normal endothelial) cells. Put plainly: MTT cytotoxicity assay, HUVEC. The following applies: Homo sapiens, read-out: IC50 HUVEC. Type of data set: cell-based. On the procedure:
as §1, §2

Data set [5] in a line: Lipophilicity (logkw) by reversed-phase chromatography (RP-HPLC). Type of data set: physicochemical. Conditions: for logkw (Experimental): extrapolated to pure water; for logkw (Table S2): intercept of logk vs methanol fraction, n = 4. The source says: The main goal of the synthetic part was the synthesis of new derivatives of dicarboximides with decreased lipophilicity in comparison to the lead compounds, i.e., Ia–Ie and II. To reduce the lipophilicity of the new dicarboximides, a hydroxyalkyl chain connected with an aliphatic amine was introduced to the imides (Scheme 1). At the same time, the imide scaffold in derivatives from group 2 and 3 was the same as in lead compounds Ia–Ie and II, respectively (Figure 1). The structure of the imide was changed in derivatives 1b–1g. The lipophilicity of new derivatives was calculated using the Osiris Property Explorer program. For some compounds, lipophilicity was determined experimentally by a reversed-phase chromatography (detailed description is given in Materials and Methods and in the Supplementary Data, Table S2). Table 1 summarizes the calculated (clogP) and experimental (logkw) parameters of the lipophilicity of new derivatives.
The reversed-phase high-performance liquid chromatography (RP-HPLC) analysis was performed on a Merck–Hitachi LaChrom Elite System (Merck, Darmstadt, Germany) with diode array detector L-2455, thermostat L-2300, pump L-2130, and autosampler L-2200 and with the Waters XTerra MS RP-18 (3.5 μm, 150 × 4.6 mm) chromatographic column (Waters, Milford, MA, USA) as the stationary phase. The mobile phase consisted of methanol, water, and 0.1% (v/v) formic acid and was degassed by the use of the built-in membrane degasser. The methanol gradient grade for HPLC was purchased from Merck (Merck, Darmstadt, Germany) and formic acid from Polish Reagents (Polish Reagents, Gliwice, Poland); double-distilled water was used. Then, 5 μL of methanolic solutions (0.1%; m/v) of selected samples were applied to the chromatographic column by the use of an autosampler Hitachi L-2200 (LaChrom Elite, Hitachi-Merck, Darmstadt, Germany). The analysis was performed with the flow rate of 0.7 mL min^−1 in isocratic mode using various concentrations of organic modifier (methanol) in binary polar mobile phases; percentages of methanol in water were 45–70% (%, v/v) and changed by 5% per step. Chromatograms were detected at 254 nm and the temperature of the column was 25 °C. All experiments were repeated in triplicate, and the final results were taken to be the arithmetic means. Dead time was measured by the use of uracil (Calbiochem. Merck, Darmstadt, Germany). Statistical and regression analyses were performed using Statistica (ver. 13.3 for Windows). The chromatographic lipophilicity parameters ( logkW ) for selected samples were obtained by the extrapolation of the retention parameter logk to pure water, according to Equation (1):(1) logk=logkw−S·ϕ; where logkW is the value of the retention factor of a substance in pure water, S is the slope of the regression curve, and ϕ is the concentration of the organic modifier. The values of logk were calculated based on the raw HPLC data using the formula (2):(2) logk=logtR−t0/t0; where tR is the retention time and t0 is the dead retention time (determined for uracil).
The chromatographic lipophilicity parameters (logkௐ ) for selected samples were ob‐ tained by the extrapolation of the retention parame te r logk to pure water, according to […]
where logkௐ is the value of the retention factor of a substance in pure water, S is the slope of the regression curve, and φ is the concentration of the organic modifier. The values of logk were ca lcula ted based on the raw HPLC data using the formula: […]
logk ൌ log ሺ௧ೃ ି ௧బ௧బ ሻ (2) where tோ is the retention time and t଴ is the dead retention time (determined for ura‐ cil). The goodness of fit of the equation (1) to the experimental data was classified accord‐ ing to Jaffe (Jaffe, H. H. A Reexamination of the Hammet Equation. Chem. Rev. 1953, 53, In our RP‐HPLC experiments, the goodness of fit of the equation to the experi‐ mental data are excellent in most ca ses (r > 0.99). The F statistic val ues are, in all cases, […]

The mark [6] stands for this setting: 48 h incubation, average (SD) of three experiments.
The mark [7] stands for this setting: MOLT-4, 48 h incubation, average (SD) of three experiments.

Each structure is given as a SMILES string. Where two headings read alike, the source gives them in different places.

On to `CCC12C(=O)C(CC)(C(c3ccccc3)=C1c1ccccc1)C1C(=O)N(CC(O)CNC(C)C)C(=O)C12` (stereo not shown) [Ie], for which the IC50 worked out at 10 µM in data set [1] (48 h); 8 µM in data set [2]; 15 µM in data set [3] (MOLT-4, 48 h); 3.5 µM in data set [4] (48 h).
Turning to `CN(C)CCN1C(=O)C2C(C1=O)C1(c3ccccc3)CC2(c2ccccc2)C(c2ccccc2)=C1c1ccccc1` (stereo not shown) [II], the IC50 in data set [1] (setting [6]) was found to be 20 µM; in data set [2] (setting [6]), 16 µM; in data set [3] (setting [7]), 18 µM; in data set [4] (setting [6]), 4 µM.
The matching figures for `CC12C(=O)C(C)(C(c3ccccc3)=C1c1ccccc1)C1C(=O)N(CCN3CCCCC3)C(=O)C12` (stereo not shown) [1i, 4-[2-(piperidin-1-yl)ethy]-1,7-dimethyl-8,9-diphenyl-4-azatricyclo[5.2.1.0^2,6]dec-8-ene-3,5,10-trione]: 52 µM, 30 µM, 15 µM and 23 µM.
For `CCC12C(=O)C(CC)(C(c3ccccc3)=C1c1ccccc1)C1C(=O)N(CCCN(C)C)C(=O)C12` (stereo not shown) [Id], in data set [5], the “logkw (Experimental)” value is on record as 5.05 and the “logkw (Table S2)” value was determined as 5.0532.
In the case of `CCC12C(=O)C(CC)(C(c3ccccc3)=C1c1ccccc1)C1C(=O)N(CCN(C)C)C(=O)C12` (stereo not shown) [Ia], in data set [5], the “logkw (Experimental)” value is given as 4.94 and the “logkw (Table S2)” value is 4.9430.
With `CCCCN(CCCC)CC(O)CN1C(=O)C2C(C1=O)C1(C)C(=O)C2(C)C(c2ccccc2)=C1c1ccccc1` (stereo not shown) [1e, 4-[3-(dibutylamino)-2-hydroxypropyl]-1,7-dimethyl-8,9-diphenyl-4-azatricyclo [5.2.1.0^2,6]dec-8-ene-3,5,10-trione], the concentration for half-maximal inhibition (IC50) in data set [1] (setting [6]) worked out at 3.2 µM; in data set [2] (setting [6]), 5.8 µM; in data set [3] (setting [7]), 8 µM; in data set [4] (setting [6]) it was 30 µM.
With `CCNCC(O)CN1C(=O)C2C(C1=O)C1(c3ccccc3)CC2(c2ccccc2)C(c2ccccc2)=C1c1ccccc1` (stereo not shown) [3b, 4-[3-(ethylamino)-2-hydroxypropyl]-1,7,8,9-tetraphenyl-4-azatricyclo[5.2.1.0^2,6]dec-8-ene-3,5-dione], in data set [5], the “logkw (Experimental)” value is given as 6.31. Moreover, the “logkw (Table S2)” value in data set [5] is listed as 6.3071. The IC50 in data set [1] (setting [6]), in data set [2] (setting [6]) and in data set [3] (setting [7]) was greater than 100 µM in each case.
For the molecule `CCC12C(=O)C(CC)(C(c3ccccc3)=C1c1ccccc1)C1C(=O)N(CCN3CCCCC3)C(=O)C12` (stereo not shown) [Ic], the IC50 stood at 18 µM in data set [1] (setting [6]), 20 µM in data set [2] (setting [6]), 15 µM in data set [3] (setting [7]) and 15 µM in data set [4] (setting [6]).
In the case of `CC12C(=O)C(C)(C(c3ccccc3)=C1c1ccccc1)C1C(=O)N(CC(O)CN3CCCCC3)C(=O)C12` (stereo not shown) [1f, 4-[2-hydroxy-3-(piperidin-1-yl)propyl]-1,7-dimethyl-8,9-diphenyl-4-azatricyclo[5.2.1.0^2,6]dec-8-ene-3,5,10-trione], the 50% inhibitory concentration (IC50) in data set [1] (setting [6]) worked out at 55 µM; in data set [2] (setting [6]) it was 18 µM; in data set [3] (setting [7]), 40 µM; in data set [4] (setting [6]), 21 µM.
Consider `CC12C(=O)C(C)(C(c3ccccc3)=C1c1ccccc1)C1C(=O)N(CC(O)CN3CCOCC3)C(=O)C12` (stereo not shown) [1g, 4-[-2-hydroxy-3-(morpholin-4-yl)propyl]-1,7-dimethyl-8,9-diphenyl-4-azatricyclo [5.2.1.0^2,6]dec-8-ene-3,5,10-trione], for which the “logkw (Experimental)” value in data set [5] is reported as 4.83. The “logkw (Table S2)” value in data set [5] was found to be 4.8345. In addition, the concentration for half-maximal inhibition (IC50) in data set [1] (setting [6]), in data set [2] (setting [6]) and in data set [3] (setting [7]) was greater than 100 µM in each case.
With `CC12C(=O)C(C)(C(c3ccccc3)=C1c1ccccc1)C1C(=O)N(CCN3CCOCC3)C(=O)C12` (stereo not shown) [1j, 4-[2-(morpholin-4-yl)ethy]-1,7-dimethyl-8,9-diphenyl-4-azatricyclo[5.2.1.0^2,6]dec-8-ene-3,5,10-trione], the IC50 in data set [1] (setting [6]), in data set [2] (setting [6]) and in data set [3] (setting [7]) was greater than 100 µM throughout.
Take `CCN(CC)CCN1C(=O)C2C(C1=O)C1(CC)C(=O)C2(CC)C(c2ccccc2)=C1c1ccccc1` (stereo not shown) [Ib]: in data set [5], the “logkw (Experimental)” value is 5.09 and the “logkw (Table S2)” value is recorded as 5.0889.
